The source made the active and inactive calls. No cut-off for these calls is given here.

Experimental findings from ChEMBL document CHEMBL3227964 (J Med Chem, 1979) are described below.

In data set [1] the test system is Escherichia coli. In words: Induction of sensitization to irradiation in Escherichia coli AB1157 under hypoxic condition assessed as reduction in colony formation at 1 mM measured after irradiation. Format: functional, organism-based.
Data set [2] concerns Escherichia coli. In words: Antimicrobial activity against Escherichia coli AB1157 assessed as reduction in colony formation at 1 mM. It counts as organism-based. The following applies: in vivo, 1000 µM.
Data set [3] relates to Escherichia coli. In words: Induction of sensitization to irradiation in Escherichia coli AB1157 under oxic condition assessed as reduction in colony formation at 1 mM measured after irradiation. The following applies: in vivo, 1000 µM. It counts as organism-based.

`O=[N+]([O-])c1ncn(CCO)c1Cl`: the result in the data set on Escherichia coli [1] was Active. Also, the Activity result with Escherichia coli [2] is “Non-toxic”; in the data set with Escherichia coli [3] it was “Toxic”.

As to `O=[N+]([O-])c1cnc2n1CCO2`, in the data set with Escherichia coli [1], the result was Active. For the same molecule, the values for the Activity entry in the data set on Escherichia coli [2] and in the data set with Escherichia coli [3] were “Non-toxic” and “Toxic”, respectively.

Regarding `COCC(O)Cn1ccnc1[N+](=O)[O-]` (configuration not stated), the outcome in the data set with Escherichia coli [1] was Active.
